The values that follow come from ChEMBL document CHEMBL1152560, “Substituted 2-arylbenzothiazoles as kinase inhibitors: hit-to-lead optimization” (Bioorg Med Chem, 2009).

Assay [1] concerns the target T1, Tyrosine-protein kinase JAK3 (Homo sapiens) (UniProt P52333).
T1 sequence (whole entry): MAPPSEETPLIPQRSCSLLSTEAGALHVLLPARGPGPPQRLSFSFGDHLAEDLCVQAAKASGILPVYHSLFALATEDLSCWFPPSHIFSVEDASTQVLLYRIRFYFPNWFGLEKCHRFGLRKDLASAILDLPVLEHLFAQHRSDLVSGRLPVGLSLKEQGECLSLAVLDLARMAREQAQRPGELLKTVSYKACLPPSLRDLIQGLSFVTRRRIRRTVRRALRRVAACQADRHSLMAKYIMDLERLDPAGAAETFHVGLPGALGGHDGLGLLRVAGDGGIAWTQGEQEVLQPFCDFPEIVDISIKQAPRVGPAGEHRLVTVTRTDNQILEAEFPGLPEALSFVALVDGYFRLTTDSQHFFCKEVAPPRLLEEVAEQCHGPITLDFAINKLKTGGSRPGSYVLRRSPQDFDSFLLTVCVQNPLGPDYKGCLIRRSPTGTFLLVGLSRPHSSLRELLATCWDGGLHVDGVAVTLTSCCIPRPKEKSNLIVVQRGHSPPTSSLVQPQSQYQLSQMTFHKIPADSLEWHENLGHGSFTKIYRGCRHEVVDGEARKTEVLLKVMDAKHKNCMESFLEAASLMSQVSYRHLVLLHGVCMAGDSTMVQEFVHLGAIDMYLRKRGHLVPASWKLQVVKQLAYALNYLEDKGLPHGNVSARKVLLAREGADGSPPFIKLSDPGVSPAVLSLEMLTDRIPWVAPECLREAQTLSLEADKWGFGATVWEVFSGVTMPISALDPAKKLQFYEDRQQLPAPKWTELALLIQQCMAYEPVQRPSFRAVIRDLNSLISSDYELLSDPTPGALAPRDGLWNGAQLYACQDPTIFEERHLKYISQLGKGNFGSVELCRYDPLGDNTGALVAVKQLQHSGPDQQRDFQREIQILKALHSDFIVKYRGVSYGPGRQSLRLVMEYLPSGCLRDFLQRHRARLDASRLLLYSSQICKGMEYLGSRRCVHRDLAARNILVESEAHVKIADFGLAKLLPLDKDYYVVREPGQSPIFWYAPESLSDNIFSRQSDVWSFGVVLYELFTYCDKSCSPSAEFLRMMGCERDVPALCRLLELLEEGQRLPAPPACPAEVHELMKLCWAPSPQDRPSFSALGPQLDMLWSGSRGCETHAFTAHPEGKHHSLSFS
The experiment in a line: Residual activity of JAK3 at 10 uM by microplate scintillation counting.

Assay [2] addresses Epidermal growth factor receptor (Homo sapiens, UniProt P00533). Briefly: Residual activity of wild type EGF-R at 1 uM by microplate scintillation counting.
Assay [3] concerns the target T2, Serine/threonine-protein kinase Sgk1 (Homo sapiens) (UniProt O00141).
T2 sequence (whole entry): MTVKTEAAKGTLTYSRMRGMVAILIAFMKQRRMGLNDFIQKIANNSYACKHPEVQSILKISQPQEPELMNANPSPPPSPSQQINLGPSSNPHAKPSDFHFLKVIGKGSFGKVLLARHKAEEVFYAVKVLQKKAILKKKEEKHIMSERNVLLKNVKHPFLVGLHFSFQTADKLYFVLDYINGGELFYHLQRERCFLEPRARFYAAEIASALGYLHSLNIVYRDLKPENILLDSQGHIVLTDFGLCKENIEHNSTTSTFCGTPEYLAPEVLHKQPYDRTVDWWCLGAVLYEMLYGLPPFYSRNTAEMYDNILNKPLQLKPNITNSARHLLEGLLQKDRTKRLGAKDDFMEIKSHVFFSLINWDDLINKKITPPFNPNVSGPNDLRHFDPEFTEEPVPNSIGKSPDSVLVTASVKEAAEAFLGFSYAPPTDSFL
The experiment in a line: Residual activity of SGK1 at 0.1 uM by microplate scintillation counting.

Assay [4] deals with Rho-associated protein kinase 1 (Homo sapiens) (UniProt Q13464). Briefly: Residual activity of ROCK1 at 1 uM by microplate scintillation counting.
The target in assay [5] is Serine/threonine-protein kinase B-raf (Homo sapiens) (UniProt P15056). Briefly: Residual activity of Wild type B-RAF at 0.1 uM by microplate scintillation counting.
In assay [6] the target is Dual specificity tyrosine-phosphorylation-regulated kinase 1B (Homo sapiens) (UniProt Q9Y463). The experiment in a line: Residual activity of DYRK1B at 1 uM by microplate scintillation counting.
Assay [7] has as its target T3, Tyrosine-protein kinase Mer (Homo sapiens) (UniProt Q12866).
T3 sequence (whole entry): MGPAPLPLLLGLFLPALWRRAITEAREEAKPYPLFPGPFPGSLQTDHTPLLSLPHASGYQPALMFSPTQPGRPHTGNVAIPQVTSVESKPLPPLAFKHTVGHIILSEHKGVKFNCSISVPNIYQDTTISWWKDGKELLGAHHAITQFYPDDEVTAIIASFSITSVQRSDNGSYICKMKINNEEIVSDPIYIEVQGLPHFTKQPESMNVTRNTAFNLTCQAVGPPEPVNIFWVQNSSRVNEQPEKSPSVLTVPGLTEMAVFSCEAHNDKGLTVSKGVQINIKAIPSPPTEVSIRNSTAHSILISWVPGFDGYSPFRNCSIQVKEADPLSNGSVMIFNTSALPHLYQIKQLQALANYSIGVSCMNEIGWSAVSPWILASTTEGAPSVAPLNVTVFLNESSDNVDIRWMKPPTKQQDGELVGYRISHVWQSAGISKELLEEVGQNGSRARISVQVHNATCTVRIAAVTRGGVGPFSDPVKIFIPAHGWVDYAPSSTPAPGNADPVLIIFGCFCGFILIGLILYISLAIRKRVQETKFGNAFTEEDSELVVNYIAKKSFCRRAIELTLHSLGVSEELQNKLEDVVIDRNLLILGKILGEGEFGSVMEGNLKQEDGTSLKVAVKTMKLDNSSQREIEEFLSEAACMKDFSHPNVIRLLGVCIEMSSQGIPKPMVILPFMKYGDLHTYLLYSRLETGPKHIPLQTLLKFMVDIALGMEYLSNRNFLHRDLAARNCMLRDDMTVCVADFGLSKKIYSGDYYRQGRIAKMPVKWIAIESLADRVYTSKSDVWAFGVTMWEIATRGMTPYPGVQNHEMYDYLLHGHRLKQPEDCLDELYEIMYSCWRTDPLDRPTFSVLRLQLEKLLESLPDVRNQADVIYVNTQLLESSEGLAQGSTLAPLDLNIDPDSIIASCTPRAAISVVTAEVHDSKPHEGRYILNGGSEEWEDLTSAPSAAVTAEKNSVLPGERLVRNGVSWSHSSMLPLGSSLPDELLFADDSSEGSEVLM
The experiment in a line: Residual activity of MERTK at 10 uM by microplate scintillation counting.

The target in assay [8] is Protein kinase C theta type (Homo sapiens) (UniProt Q04759). The experiment in a line: Residual activity of PKCtheta at 0.1 uM by microplate scintillation counting.
Assay [9] concerns the target Serine/threonine-protein kinase PAK 1 (Homo sapiens) (UniProt Q13153). Briefly: Residual activity of PAK1 at 10 uM by microplate scintillation counting.

Sequence of Rho-associated protein kinase 1 (Homo sapiens) (Q13464 2-1354 limits assumed): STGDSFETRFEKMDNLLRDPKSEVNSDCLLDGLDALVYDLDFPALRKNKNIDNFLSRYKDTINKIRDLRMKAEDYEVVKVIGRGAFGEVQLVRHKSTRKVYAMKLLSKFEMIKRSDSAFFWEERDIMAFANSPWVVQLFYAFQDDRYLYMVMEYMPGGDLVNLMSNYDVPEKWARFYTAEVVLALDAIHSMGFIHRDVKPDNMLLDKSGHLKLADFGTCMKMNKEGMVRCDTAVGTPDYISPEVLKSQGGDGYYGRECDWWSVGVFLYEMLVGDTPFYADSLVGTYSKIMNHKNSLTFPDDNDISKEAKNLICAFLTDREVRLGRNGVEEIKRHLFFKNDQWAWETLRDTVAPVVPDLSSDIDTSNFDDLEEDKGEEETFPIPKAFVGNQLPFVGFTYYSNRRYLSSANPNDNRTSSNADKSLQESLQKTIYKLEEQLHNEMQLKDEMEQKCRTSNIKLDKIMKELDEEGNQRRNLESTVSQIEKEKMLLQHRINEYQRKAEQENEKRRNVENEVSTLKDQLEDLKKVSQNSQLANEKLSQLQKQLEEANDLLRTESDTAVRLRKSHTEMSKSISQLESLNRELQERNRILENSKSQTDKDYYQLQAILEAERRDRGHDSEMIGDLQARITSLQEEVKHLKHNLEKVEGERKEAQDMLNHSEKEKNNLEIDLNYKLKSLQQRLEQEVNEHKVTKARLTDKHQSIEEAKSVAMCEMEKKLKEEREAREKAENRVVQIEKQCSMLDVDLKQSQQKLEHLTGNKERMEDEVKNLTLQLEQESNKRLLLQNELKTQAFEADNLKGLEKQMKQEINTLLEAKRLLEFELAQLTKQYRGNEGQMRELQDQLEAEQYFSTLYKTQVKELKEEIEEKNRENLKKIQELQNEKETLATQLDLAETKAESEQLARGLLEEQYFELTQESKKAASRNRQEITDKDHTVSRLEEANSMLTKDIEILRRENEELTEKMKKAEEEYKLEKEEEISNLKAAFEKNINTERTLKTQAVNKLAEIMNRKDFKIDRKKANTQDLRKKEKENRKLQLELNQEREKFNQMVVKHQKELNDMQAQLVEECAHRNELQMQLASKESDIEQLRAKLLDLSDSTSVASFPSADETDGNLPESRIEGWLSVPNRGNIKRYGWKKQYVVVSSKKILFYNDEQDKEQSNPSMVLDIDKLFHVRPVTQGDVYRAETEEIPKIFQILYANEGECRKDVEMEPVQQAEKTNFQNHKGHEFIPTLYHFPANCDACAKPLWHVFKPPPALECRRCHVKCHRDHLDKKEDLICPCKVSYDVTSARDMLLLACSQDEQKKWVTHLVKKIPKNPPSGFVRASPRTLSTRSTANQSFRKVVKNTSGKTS
Sequence of Serine/threonine-protein kinase PAK 1 (Homo sapiens) (Q13153 whole entry): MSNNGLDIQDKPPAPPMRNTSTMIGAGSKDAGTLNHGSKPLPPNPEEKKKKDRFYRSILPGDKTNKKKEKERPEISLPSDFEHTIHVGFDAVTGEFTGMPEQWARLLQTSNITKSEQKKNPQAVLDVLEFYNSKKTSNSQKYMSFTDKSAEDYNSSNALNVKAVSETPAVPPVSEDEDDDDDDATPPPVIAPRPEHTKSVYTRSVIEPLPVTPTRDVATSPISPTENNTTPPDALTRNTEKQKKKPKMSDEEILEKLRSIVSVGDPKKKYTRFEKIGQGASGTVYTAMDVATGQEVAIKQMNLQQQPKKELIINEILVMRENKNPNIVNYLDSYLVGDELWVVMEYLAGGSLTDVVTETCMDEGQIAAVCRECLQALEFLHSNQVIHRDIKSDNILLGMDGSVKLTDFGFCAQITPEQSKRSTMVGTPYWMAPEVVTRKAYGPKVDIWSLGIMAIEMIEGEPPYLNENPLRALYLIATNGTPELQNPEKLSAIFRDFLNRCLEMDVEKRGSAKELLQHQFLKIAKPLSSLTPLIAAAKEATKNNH
Sequence of Dual specificity tyrosine-phosphorylation-regulated kinase 1B (Homo sapiens) (Q9Y463 whole entry, looked up): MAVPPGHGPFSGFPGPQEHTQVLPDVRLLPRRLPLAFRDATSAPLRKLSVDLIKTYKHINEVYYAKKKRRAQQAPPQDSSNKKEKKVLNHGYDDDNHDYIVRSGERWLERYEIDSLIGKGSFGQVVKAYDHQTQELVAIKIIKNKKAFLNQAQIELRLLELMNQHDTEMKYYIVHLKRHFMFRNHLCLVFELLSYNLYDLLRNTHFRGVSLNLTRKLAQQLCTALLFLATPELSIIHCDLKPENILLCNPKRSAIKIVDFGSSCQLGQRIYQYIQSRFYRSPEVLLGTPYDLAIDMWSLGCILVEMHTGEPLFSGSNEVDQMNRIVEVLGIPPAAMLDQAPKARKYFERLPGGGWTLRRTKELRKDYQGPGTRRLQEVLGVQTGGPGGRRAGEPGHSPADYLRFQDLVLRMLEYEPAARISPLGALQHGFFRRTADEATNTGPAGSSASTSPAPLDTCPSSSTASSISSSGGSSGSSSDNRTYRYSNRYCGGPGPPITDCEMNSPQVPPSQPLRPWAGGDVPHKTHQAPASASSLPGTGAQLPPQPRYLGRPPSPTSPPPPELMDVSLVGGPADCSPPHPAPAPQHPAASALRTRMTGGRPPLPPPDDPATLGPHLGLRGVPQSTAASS
Sequence of Serine/threonine-protein kinase B-raf (Homo sapiens) (P15056 whole entry): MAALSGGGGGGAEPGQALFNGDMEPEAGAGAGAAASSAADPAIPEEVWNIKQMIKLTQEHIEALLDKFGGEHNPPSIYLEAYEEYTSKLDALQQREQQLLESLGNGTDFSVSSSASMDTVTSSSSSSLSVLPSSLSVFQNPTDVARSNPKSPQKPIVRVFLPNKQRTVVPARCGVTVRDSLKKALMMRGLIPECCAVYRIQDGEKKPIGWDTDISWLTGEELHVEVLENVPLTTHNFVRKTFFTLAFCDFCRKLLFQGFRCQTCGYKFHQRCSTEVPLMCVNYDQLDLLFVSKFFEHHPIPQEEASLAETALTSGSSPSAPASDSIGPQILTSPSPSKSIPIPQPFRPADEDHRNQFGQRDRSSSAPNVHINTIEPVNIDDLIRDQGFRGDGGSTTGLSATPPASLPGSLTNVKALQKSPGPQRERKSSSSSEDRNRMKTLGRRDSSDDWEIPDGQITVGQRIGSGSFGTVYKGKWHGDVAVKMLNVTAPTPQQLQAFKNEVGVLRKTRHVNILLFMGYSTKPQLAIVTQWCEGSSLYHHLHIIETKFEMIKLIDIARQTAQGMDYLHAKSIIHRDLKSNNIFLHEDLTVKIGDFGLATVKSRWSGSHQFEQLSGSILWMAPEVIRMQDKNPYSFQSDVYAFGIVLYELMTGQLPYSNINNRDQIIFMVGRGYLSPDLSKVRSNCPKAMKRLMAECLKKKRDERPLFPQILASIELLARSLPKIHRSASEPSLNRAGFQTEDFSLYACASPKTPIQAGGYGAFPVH
Sequence of Epidermal growth factor receptor (P00533 whole entry): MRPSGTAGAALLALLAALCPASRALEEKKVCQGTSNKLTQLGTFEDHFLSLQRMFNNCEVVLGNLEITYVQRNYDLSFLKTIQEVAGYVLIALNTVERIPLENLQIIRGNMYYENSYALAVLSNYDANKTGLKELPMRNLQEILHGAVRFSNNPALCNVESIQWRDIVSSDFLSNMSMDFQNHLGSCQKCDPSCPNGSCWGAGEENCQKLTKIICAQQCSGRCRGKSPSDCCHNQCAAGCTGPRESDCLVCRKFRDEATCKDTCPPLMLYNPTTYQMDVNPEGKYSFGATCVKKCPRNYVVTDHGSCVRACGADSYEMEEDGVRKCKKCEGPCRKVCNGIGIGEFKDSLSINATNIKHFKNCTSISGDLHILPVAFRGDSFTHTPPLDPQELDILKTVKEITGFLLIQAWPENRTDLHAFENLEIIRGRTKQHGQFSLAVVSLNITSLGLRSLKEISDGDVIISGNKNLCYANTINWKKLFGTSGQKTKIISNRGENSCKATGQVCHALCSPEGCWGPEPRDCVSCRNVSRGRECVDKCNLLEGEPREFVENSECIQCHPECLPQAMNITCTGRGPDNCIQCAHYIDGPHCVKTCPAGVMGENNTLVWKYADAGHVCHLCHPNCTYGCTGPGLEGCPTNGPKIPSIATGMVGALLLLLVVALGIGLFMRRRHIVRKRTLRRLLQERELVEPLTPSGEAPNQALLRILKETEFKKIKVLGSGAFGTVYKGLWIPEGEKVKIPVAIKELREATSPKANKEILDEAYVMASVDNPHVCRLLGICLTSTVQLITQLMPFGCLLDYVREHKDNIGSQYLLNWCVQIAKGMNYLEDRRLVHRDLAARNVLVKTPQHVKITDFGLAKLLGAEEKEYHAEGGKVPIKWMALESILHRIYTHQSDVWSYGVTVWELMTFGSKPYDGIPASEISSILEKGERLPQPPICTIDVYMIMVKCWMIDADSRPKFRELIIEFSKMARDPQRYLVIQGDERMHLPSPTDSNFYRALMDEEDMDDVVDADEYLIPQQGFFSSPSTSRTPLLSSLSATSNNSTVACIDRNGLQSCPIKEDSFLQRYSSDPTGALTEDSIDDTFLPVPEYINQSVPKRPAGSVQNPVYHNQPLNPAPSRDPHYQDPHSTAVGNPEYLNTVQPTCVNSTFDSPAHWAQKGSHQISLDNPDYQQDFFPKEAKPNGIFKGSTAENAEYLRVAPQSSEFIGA

What is called residual activity is the signal under treatment as a percentage of the control signal. As for `COc1cc2c(Oc3ccc(-c4nc5ccccc5s4)cc3)ncnc2cc1OCCCN1CCCC1`, the residual activity in assay [1] was 68%; in assay [2] it was 91%; in [3] it was 96%; in assay [4], 93%; in assay [5], 98%; in assay [6] it was 98%. The residual activity was 1% in [7], 95% in [8] and 69% in assay [9].
For the molecule `COc1cc2c(Oc3ccc(-c4nc5ccccc5s4)cc3F)ncnc2cc1OCCCN1CCN(C)CC1`, the residual activity in assay [1] worked out at 53%; in assay [2], 96%; in [3], 98%; in [4], 105%; in assay [5] it was 95%; in [6], 95%. The values for the residual activity in assay [7], in [8] and in [9] were 2%, 95% and 57%, respectively.
For the molecule `COc1cc2c(Oc3ccc(-c4nc5ccccc5s4)cc3)ncnc2cc1OCCCN1CCN(C)CC1`, the residual activity was 63% in assay [1]; 77% in assay [2]; 85% in [3]; 102% in assay [4]; 90% in assay [5]; 105% in assay [6]. The residual activity in [7] was determined as 3%; in assay [8] it was 100%; in [9], 68%.
